Measurements: US20050239656A1, “Pyridine compounds or salts thereof and herbicides containing the same” (priority 2002, published 2005)

Test system: rice (var. Nihonbare)
Assay: Test Example 3: paddy pot test, transplanted rice
Assay type: in vivo, Oryza sativa L.
Settings: active ingredient 250 g/ha, applied 4th day after transplantation, visually observed 21st day after application, 0 = non-treated, 100 = complete kill
From the text: (§1) Paddy field soil was put into a 1/1,000,000 ha pot, and seed of barnyardgrass and japanese bulrush were sown and slightly covered with soil. Then, the pot was left to stand still in a greenhouse in a state where the depth of flooding water was from 0.5 to 1 cm, and one day or two days later, tubers of japanese ribbon wapato were planted. Thereafter, the depth of flooding water was maintained at a level of from 3 to 4 cm, and when barnyardgrass and japanese bulrush reached a 0.5 leaf stage and japanese ribbon wapato reached a primary leaf stage, an aqueous diluted solution of a wettable powder or emulsifiable concentrate having the compound of the present invention formulated in accordance with a usual formulation method, was uniformly applied under submerged conditions by a pipette so that the dose of the active ingredient would be at a predetermined level. On the other hand, paddy field soil was put into a 1/1,000,000 ha pot and puddled and leveled, and the depth of flooding water was from 3 to 4 cm. Next day, rice (var. Nihonbare) of 2 leaf stage was transplanted in a depth of 3 cm. On the 4th day after the transplantation, the compound of the present invention was applied in the same manner as described above. On the 14 days after the application of the herbicide, the growth of barnyard grass, japanese burlrush and japanese ribbon wapato was visually observed and on the 21st day after the application of the herbicide, the growth of rice was visually observed, and the herbicidal effects were evaluated by the growth-controlling degrees (%) ranging from 0 (equivalent to the non-treated plot) to 100 (complete kill), whereby the results shown in Table 5 were obtained.

First: CC(C)C(c1cnccc1C(F)(F)F)N(C)C(=O)Cc1cc(Cl)cc(Cl)c1 (centres unmarked) [I-91]
Second: C=CCCC(=O)N(C)C(c1cnccc1C(F)(F)F)C(C)C (centres unmarked) [I-211]
The “Growth controlling degree (%) Rice” value of the first is lower: 0% for the first, 50% for the second.

First: CC(Sc1ccc(Cl)cc1)C(=O)N(C)C(c1cnccc1C(F)(F)F)C(C)C (mixture of isomers) [I-141]
Second: CC(Oc1ccc(Cl)cc1)C(=O)N(C)C(c1cnccc1C(F)(F)F)C(C)C (mixture of isomers) [I-139]
The “Growth controlling degree (%) Rice” value of the first is higher: 20% for the first, 10% for the second.

Compared with `CC(C)C(c1cnccc1C(F)(F)F)N(C)S(=O)(=O)c1ccc(C(C)(C)C)cc1` (centres unmarked) [I-145], `CC(C)C(c1cnccc1C(F)(F)F)N(C)S(=O)(=O)C=Cc1ccc(Cl)cc1` (centres unmarked) [I-142] is lower in “Growth controlling degree (%) Rice” value: 20% for the first, 10% for the second.

Going from `CC(Sc1ccccc1)C(=O)N(C)C(c1cnccc1C(F)(F)F)C(C)C` (mixture of isomers) [I-140] to `CC(C)C(c1cnccc1C(F)(F)F)N(C)C(=O)C(F)(F)c1ccccc1` (centres unmarked) [I-143], the “Growth controlling degree (%) Rice” value rises from 0% to 10%.

Same assay, conditions: active ingredient 500 g/ha, applied 4th day after transplantation, visually observed 21st day after application, 0 = non-treated, 100 = complete kill

`CCCC(=O)N(C)C(c1cnccc1C(F)(F)F)c1cccc2ccccc12` (centres unmarked) [I-50] and `CCCC(=O)NC(c1cnccc1C(F)(F)F)c1cccc2ccccc12` (centres unmarked) [I-49] are the same in “Growth controlling degree (%) Rice” value: 10% for the first, 10% for the second.

Compared with `CC(C)C(c1cnccc1C(F)(F)F)N(C)C(=O)Cc1ccc(-c2ccccc2)cc1` (centres unmarked) [I-9], `CC(C)C(c1cnccc1C(F)(F)F)N(C)C(=O)Cc1cccc2ccccc12` (centres unmarked) [I-56] is higher in “Growth controlling degree (%) Rice” value: 0% for the first, 20% for the second.

Going from `CC(C)C(c1cnccc1Cl)N(C)C(=O)Cc1ccc2ccccc2c1` (centres unmarked) [I-59] to `CCN(C(=O)Cc1ccccc1)C(c1cnccc1C(F)(F)F)C(C)C` (centres unmarked) [I-24], the “Growth controlling degree (%) Rice” value rises from 10% to 40%.

`CCN(C(=O)N(C)C(c1cnccc1C(F)(F)F)C(C)C)c1ccccc1` (centres unmarked) [I-233] and `CC(C)C(c1ccc(C(F)(F)F)nc1)N(C)C(=O)Cc1ccccc1` (racemic) [I-123] are the same in “Growth controlling degree (%) Rice” value: 10% for the first, 10% for the second.

Test system: barnyardgrass
Assay: Test Example 3: paddy pot test, application under submerged conditions
Assay type: in vivo, Echinochloa crus-galli L.
Settings: active ingredient 250 g/ha; submerged application at 0.5 leaf stage; visually observed 14 days after application; 0 = non-treated, 100 = complete kill
From the text: as §1, with “the” for “the other hand, paddy field soil was put into a 1/1,000,000 ha pot and puddled and leveled, and the depth of flooding water was from 3 to 4 cm. Next day, rice (var. Nihonbare) of 2 leaf stage was transplanted in a depth of 3 cm. On the 4th day after the transplantation, the compound of the present invention was applied in the same manner as described above. On the”

Compared with `CC(C)C(c1cnccc1C(F)(F)F)N(C)C(=O)Cc1cc(Cl)cc(Cl)c1` (centres unmarked) [I-91], `C=CCCC(=O)N(C)C(c1cnccc1C(F)(F)F)C(C)C` (centres unmarked) [I-211] is higher in “Growth controlling degree (%) Barnyardgrass” value: 90% for the first, 100% for the second.

Going from `CC(Sc1ccc(Cl)cc1)C(=O)N(C)C(c1cnccc1C(F)(F)F)C(C)C` (mixture of isomers) [I-141] to `CC(Oc1ccc(Cl)cc1)C(=O)N(C)C(c1cnccc1C(F)(F)F)C(C)C` (mixture of isomers) [I-139], the “Growth controlling degree (%) Barnyardgrass” value falls from 100% to 98%.

`CC(C)C(c1cnccc1C(F)(F)F)N(C)S(=O)(=O)c1ccc(C(C)(C)C)cc1` (centres unmarked) [I-145] and `CC(C)C(c1cnccc1C(F)(F)F)N(C)S(=O)(=O)C=Cc1ccc(Cl)cc1` (centres unmarked) [I-142] are the same in “Growth controlling degree (%) Barnyardgrass” value: 100% for the first, 100% for the second.

`CC(Sc1ccccc1)C(=O)N(C)C(c1cnccc1C(F)(F)F)C(C)C` (mixture of isomers) [I-140] and `CC(C)C(c1cnccc1C(F)(F)F)N(C)C(=O)C(F)(F)c1ccccc1` (centres unmarked) [I-143] are the same in “Growth controlling degree (%) Barnyardgrass” value: 98% for the first, 98% for the second.

Same assay, conditions: active ingredient 500 g/ha; submerged application at 0.5 leaf stage; visually observed 14 days after application; 0 = non-treated, 100 = complete kill

First: CCCC(=O)N(C)C(c1cnccc1C(F)(F)F)c1cccc2ccccc12 (centres unmarked) [I-50]
Second: CCCC(=O)NC(c1cnccc1C(F)(F)F)c1cccc2ccccc12 (centres unmarked) [I-49]
The “Growth controlling degree (%) Barnyardgrass” value of the first is higher: 95% for the first, 90% for the second.

Compared with `CC(C)C(c1cnccc1C(F)(F)F)N(C)C(=O)Cc1ccc(-c2ccccc2)cc1` (centres unmarked) [I-9], `CC(C)C(c1cnccc1C(F)(F)F)N(C)C(=O)Cc1cccc2ccccc12` (centres unmarked) [I-56] is lower in “Growth controlling degree (%) Barnyardgrass” value: 100% for the first, 95% for the second.

Compared with `CC(C)C(c1cnccc1Cl)N(C)C(=O)Cc1ccc2ccccc2c1` (centres unmarked) [I-59], `CC(C)C(c1ccc(C(F)(F)F)nc1)N(C)C(=O)Cc1ccccc1` (racemic) [I-123] is lower in “Growth controlling degree (%) Barnyardgrass” value: 90% for the first, 70% for the second.

With `CCN(C(=O)N(C)C(c1cnccc1C(F)(F)F)C(C)C)c1ccccc1` (centres unmarked) [I-233] the “Growth controlling degree (%) Barnyardgrass” value was 95%.

Test system: japanese bulrush
Assay: as above
Assay type: in vivo, Scirpus juncoides
Settings: active ingredient 250 g/ha; submerged application at 0.5 leaf stage; visually observed 14 days after application; 0 = non-treated, 100 = complete kill
From the text: as §1, with “the” for “the other hand, paddy field soil was put into a 1/1,000,000 ha pot and puddled and leveled, and the depth of flooding water was from 3 to 4 cm. Next day, rice (var. Nihonbare) of 2 leaf stage was transplanted in a depth of 3 cm. On the 4th day after the transplantation, the compound of the present invention was applied in the same manner as described above. On the”

Compared with `CC(C)C(c1cnccc1C(F)(F)F)N(C)C(=O)Cc1cc(Cl)cc(Cl)c1` (centres unmarked) [I-91], `C=CCCC(=O)N(C)C(c1cnccc1C(F)(F)F)C(C)C` (centres unmarked) [I-211] is higher in “Growth controlling degree (%) Japanese bulrush” value: 20% for the first, 98% for the second.

`CC(Sc1ccc(Cl)cc1)C(=O)N(C)C(c1cnccc1C(F)(F)F)C(C)C` (mixture of isomers) [I-141] and `CC(Oc1ccc(Cl)cc1)C(=O)N(C)C(c1cnccc1C(F)(F)F)C(C)C` (mixture of isomers) [I-139] are the same in “Growth controlling degree (%) Japanese bulrush” value: 98% for the first, 98% for the second.

Compared with `CC(C)C(c1cnccc1C(F)(F)F)N(C)S(=O)(=O)c1ccc(C(C)(C)C)cc1` (centres unmarked) [I-145], `CC(C)C(c1cnccc1C(F)(F)F)N(C)S(=O)(=O)C=Cc1ccc(Cl)cc1` (centres unmarked) [I-142] is higher in “Growth controlling degree (%) Japanese bulrush” value: 0% for the first, 60% for the second.

`CC(Sc1ccccc1)C(=O)N(C)C(c1cnccc1C(F)(F)F)C(C)C` (mixture of isomers) [I-140] and `CC(C)C(c1cnccc1C(F)(F)F)N(C)C(=O)C(F)(F)c1ccccc1` (centres unmarked) [I-143] are the same in “Growth controlling degree (%) Japanese bulrush” value: 98% for the first, 98% for the second.

Same assay, conditions: active ingredient 500 g/ha; submerged application at 0.5 leaf stage; visually observed 14 days after application; 0 = non-treated, 100 = complete kill

Compared with `CCCC(=O)N(C)C(c1cnccc1C(F)(F)F)c1cccc2ccccc12` (centres unmarked) [I-50], `CCCC(=O)NC(c1cnccc1C(F)(F)F)c1cccc2ccccc12` (centres unmarked) [I-49] is lower in “Growth controlling degree (%) Japanese bulrush” value: 95% for the first, 85% for the second.

First: CC(C)C(c1cnccc1C(F)(F)F)N(C)C(=O)Cc1ccc(-c2ccccc2)cc1 (centres unmarked) [I-9]
Second: CC(C)C(c1cnccc1C(F)(F)F)N(C)C(=O)Cc1cccc2ccccc12 (centres unmarked) [I-56]
The “Growth controlling degree (%) Japanese bulrush” value of the first is lower: 10% for the first, 70% for the second.

Going from `CC(C)C(c1cnccc1Cl)N(C)C(=O)Cc1ccc2ccccc2c1` (centres unmarked) [I-59] to `CCN(C(=O)Cc1ccccc1)C(c1cnccc1C(F)(F)F)C(C)C` (centres unmarked) [I-24], the “Growth controlling degree (%) Japanese bulrush” value rises from 10% to 95%.

Going from `CCN(C(=O)N(C)C(c1cnccc1C(F)(F)F)C(C)C)c1ccccc1` (centres unmarked) [I-233] to `CC(C)C(c1ccc(C(F)(F)F)nc1)N(C)C(=O)Cc1ccccc1` (racemic) [I-123], the “Growth controlling degree (%) Japanese bulrush” value falls from 90% to 10%.

Test system: japanese ribbon wapato
Assay: as above
Assay type: in vivo, Sagittaria pygniaea
Settings: active ingredient 250 g/ha; submerged application at primary leaf stage; visually observed 14 days after application; 0 = non-treated, 100 = complete kill
From the text: as §1, with “the” for “the other hand, paddy field soil was put into a 1/1,000,000 ha pot and puddled and leveled, and the depth of flooding water was from 3 to 4 cm. Next day, rice (var. Nihonbare) of 2 leaf stage was transplanted in a depth of 3 cm. On the 4th day after the transplantation, the compound of the present invention was applied in the same manner as described above. On the”

For `CC(C)C(c1cnccc1C(F)(F)F)N(C)C(=O)Cc1cc(Cl)cc(Cl)c1` (centres unmarked) [I-91], the “Growth controlling degree (%) Japanese ribbon wapato” value was 20%.

Same assay, conditions: active ingredient 500 g/ha; submerged application at primary leaf stage; visually observed 14 days after application; 0 = non-treated, 100 = complete kill

Going from `CC(C)C(c1cnccc1C(F)(F)F)N(C)C(=O)Cc1ccc(-c2ccccc2)cc1` (centres unmarked) [I-9] to `CC(C)C(c1cnccc1C(F)(F)F)N(C)C(=O)Cc1cccc2ccccc12` (centres unmarked) [I-56], the “Growth controlling degree (%) Japanese ribbon wapato” value rises from 30% to 90%.

Compared with `CC(C)C(c1cnccc1Cl)N(C)C(=O)Cc1ccc2ccccc2c1` (centres unmarked) [I-59], `CCN(C(=O)Cc1ccccc1)C(c1cnccc1C(F)(F)F)C(C)C` (centres unmarked) [I-24] is higher in “Growth controlling degree (%) Japanese ribbon wapato” value: 60% for the first, 100% for the second.

With `CCN(C(=O)N(C)C(c1cnccc1C(F)(F)F)C(C)C)c1ccccc1` (centres unmarked) [I-233] the “Growth controlling degree (%) Japanese ribbon wapato” value was 40%.
